Results: US6083969A, “1,3- and 2,3-diarylcycloalkano and cycloalkeno pyrazoles as selective inhibitors of cyclooxygenase-2 and antiinflammatory agents” (Ortho-McNeil Pharaceutical, Inc., priority 1999, dated 2000)

Experiments:
[1] = target: T1, human prostaglandin H2 synthase type I (COX-1) (Homo sapiens, UniProt P23219); assay: Human prostaglandin H2 synthase type I (COX-1) homogenate assay (transfected COS-7 cells, PGE2 formation); type: biochemical; details: COS-7 homogenate; for inhibition at 10 µM: read-out: P6: COX 1 Homogenized Cell % Inhibition
T1 construct: expressed in transfected cells; host or cells: COS-7 (African Green Monkey Kidney)
T1 sequence (P23219 24-599): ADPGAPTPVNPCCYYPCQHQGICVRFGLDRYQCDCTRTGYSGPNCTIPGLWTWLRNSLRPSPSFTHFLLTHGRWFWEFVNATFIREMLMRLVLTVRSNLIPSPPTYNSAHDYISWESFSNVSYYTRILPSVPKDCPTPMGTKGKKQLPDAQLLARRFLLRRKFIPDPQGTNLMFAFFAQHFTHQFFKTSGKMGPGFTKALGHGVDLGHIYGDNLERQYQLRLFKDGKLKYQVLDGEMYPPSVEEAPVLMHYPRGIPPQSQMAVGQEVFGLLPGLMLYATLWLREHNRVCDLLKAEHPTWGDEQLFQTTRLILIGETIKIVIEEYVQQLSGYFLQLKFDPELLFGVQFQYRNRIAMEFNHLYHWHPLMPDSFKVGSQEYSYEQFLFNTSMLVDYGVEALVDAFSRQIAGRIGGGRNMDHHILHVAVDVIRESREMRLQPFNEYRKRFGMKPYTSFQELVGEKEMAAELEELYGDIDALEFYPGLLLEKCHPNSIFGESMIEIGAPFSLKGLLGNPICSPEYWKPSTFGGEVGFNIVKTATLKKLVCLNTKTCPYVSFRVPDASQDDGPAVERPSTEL
Procedure: HUMAN PROSTAGLANDIN H2 SYNTHASE--TYPE I (COX-1) HOMOGENATE ASSAY (SINGLE CONCENTRATION)
Procedures 6 and 7 were used to assess COX-1 activity in a homogenized cell assay as follows:
(§1) COS-7 (African Green Monkey Kidney) cells are maintained in a suitable medium, and are trypsinized and plated at a density of 1×10^6 cells/well of a 6 well plate prior to assay. Approximately 24 hours later, cells are transiently transfected with a plasmid containing the human COX-1 gene using the lipofectamine method. Two days later, the cell-free homogenate is prepared by subjecting the cells to a polytron followed by centrifugation at 9,000×g. COX activity, initiated by the addition of […] arachidonic acid to the 9,000×g supernatant, is monitored in the presence of vehicle or drug. Product (PGE2) formation is quantitated by radioimmunoassay. Activity, reported as percent inhibition of PGE2 produced, is calculated as follows: [formula]

[2] = target: T2, human prostaglandin H2 synthase type II (COX-2) (Homo sapiens, UniProt P35354); assay: Human prostaglandin H2 synthase type II (COX-2) whole cell assay (ECV-304 cells, PGE2 by radioimmunoassay); type: cell-based; parameters: endogenous in cells; host or cells: ECV-304; details: for IC50: read-out: P2: COX 2 Whole Cell IC50; for inhibition at 3 µM: @3 μM (superscript a); for inhibition at 3 µM / inhibition at 10 µM: read-out: P1: COX 2 Whole Cell % Inhibition
T2 sequence (P35354 18-604): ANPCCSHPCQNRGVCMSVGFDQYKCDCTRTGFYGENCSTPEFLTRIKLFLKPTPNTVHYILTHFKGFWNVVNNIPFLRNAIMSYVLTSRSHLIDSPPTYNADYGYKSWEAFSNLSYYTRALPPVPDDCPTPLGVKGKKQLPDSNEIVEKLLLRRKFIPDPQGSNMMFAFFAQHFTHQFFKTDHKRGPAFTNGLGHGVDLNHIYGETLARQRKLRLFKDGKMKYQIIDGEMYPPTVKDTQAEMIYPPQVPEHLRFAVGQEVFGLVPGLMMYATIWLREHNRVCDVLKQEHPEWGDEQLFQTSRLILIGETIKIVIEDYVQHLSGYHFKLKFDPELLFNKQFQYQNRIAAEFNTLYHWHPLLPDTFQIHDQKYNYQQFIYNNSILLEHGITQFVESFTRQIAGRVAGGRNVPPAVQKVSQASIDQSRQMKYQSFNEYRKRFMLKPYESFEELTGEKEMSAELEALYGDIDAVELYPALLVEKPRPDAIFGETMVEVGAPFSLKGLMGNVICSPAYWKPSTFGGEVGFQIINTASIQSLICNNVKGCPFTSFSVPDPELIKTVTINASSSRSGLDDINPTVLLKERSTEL
Procedure: HUMAN PROSTAGLANDIN H2 SYNTHASE TYPE II (COX-2) WHOLE CELL ASSAY (MULTIPLE CONCENTRATIONS)
Procedures 1 and 2 were used to determine the ability of the compounds to inhibit human prostaglandin H2 synthase type II (COX-2) in a whole cell assay at multiple concentrations as follows:
Approximately 28 h later, […] PMA and […] ionomycin (both final concentrations) are added to each well and incubated for an additional 16 h. Vehicle or test compounds in the amount of […] are incubated with the cells for five minutes prior to initiation of COX-2 enzyme activity by the addition of 30 μM arachidonic acid. Ten minutes later, an aliquot of the supernatant is withdrawn and the amount of PGE2 present quantitated by radioimmunoassay. Activity, reported as percent inhibition of PGE2 produced, is calculated as follows: [formula]

[3] = target: T2, human prostaglandin H2 synthase type II (COX-2); assay: Human prostaglandin H2 synthase type II (hCOX-2) homogenate assay (transfected COS-7 cells, PGE2 formation); type: biochemical; parameters: expressed in transfected cells; host or cells: COS-7 (African Green Monkey Kidney); details: for inhibition at 10 µM: read-out: P3: COX 2 Homogenized Cell % Inhibition; for IC50: read-out: P4: COX 2 Homogenized Cell IC50
Procedure: HUMAN PROSTAGLANDIN H2 SYNTHASE TYPE II (hCOX-2) HOMOGENATE ASSAY (SINGLE CONCENTRATION)
Procedures 3 and 4 were used to assess COX-2 activity in a homogenized cell assay as follows:
as §1, with “COX-2” for “COX-1”

COX-1 [4] = target: T3, COX-1 (Homo sapiens, UniProt P23219); assay: Human platelet thromboxane B2 production (via COX-1); type: cell-based; details: @3 μM (superscript b); human platelets, TXB2 production; read-out: P5: COX 1 Human Platelet % Inhibition
T3 construct: Remove the platelet-rich plasma (PRP) and dilute the PRP 1:20 with 0.9% NaCl; endogenous in cells; host or cells: human platelets (platelet-rich plasma of one volunteer)
T3 sequence (P23219 24-599): as the sequence (P23219 24-599) above

COX-1 [5] = target: T3, COX-1; assay: as above; type: cell-based; details: human platelets, TXB2 production; read-out: P5: COX 1 Human Platelet IC50
Procedure: HUMAN […] THROMBOXANE B2 PRODUCTION (via COX-1)
Procedure 5 was used to determine thromboxane B2 (TXB2) production (via COX-1) in human platelets as follows:
Draw blood from one volunteer into heparinized tubes then spin at RT for 15 to 20 minutes at 1,000 RPM. Remove the platelet-rich plasma (PRP) and dilute the PRP 1:20 with 0.9% NaCl containing 14.4U heparin/mL. Add 180 μL of the diluted PRP to each well of a 96-well plate and incubate at 37° C. for 5 minutes. Then add 20 μL vehicle (HBSS with 1% DMSO) or drug and incubate for 15 minutes at 37° C. Add 10 μl calcium ionophore and incubate 15 minutes at 37° C. Stop the reaction on slush ice for 5 minutes and assay supernatants immediately for TXB2 production via RIA or EIA.
Prepare all drugs at 10 mM in DMSO by diluting the drug in HBSS at a 1.100 ratio with 1% DMSO to 100 μM. Add 20 μl to PRP (1:10 ratio) to obtain 10 μM final concentration. The calcium ionophore is prepared by using 7 mg/mL free acid calcium ionophore in DMSO, which is warmed until the ionophore goes into solution. Just prior to use, dilute the solution 1:25 with HBSS.

Work on Cc1ccc(-n2nc(-c3ccc(Cl)cc3)c3c2CCCCC3)cc1 [Example 11, 3-(4-Chlorophenyl)-1-(4-methylphenyl)-cycloheptano-[1,2-d]-pyrazole] yielded an inhibition at 10 µM [1] of 74%, an IC50 [2] of 640 nM and an inhibition at 10 µM [3] of 40%.

Work on CS(=O)(=O)c1ccc(C(=O)C2CC(=O)CCC2=O)cc1 (centres unmarked) [Example 29f] yielded an inhibition at 3 µM (COX-1 [4]) of 6% and an inhibition at 3 µM [2] of 66%.

Compound COc1ccc(-n2nc(-c3ccc(Cl)cc3)c3c2CCCCC3)cc1 [Example 8, 3-(4-Chlorophenyl)-1-(4-methoxyphenyl)-cycloheptano-[1,2-d]-pyrazole] has an inhibition at 10 µM [1] of 25%, an IC50 ([1]; read-out: P7: COX 1 Homogenized Cell IC50) of 5300 nM and an IC50 [2] of 1560 nM. The inhibition at 10 µM ([3]; @10 μM, COS-7 homogenate) was 92% and the IC50 ([3]; COS-7 homogenate) was 380 nM.

Work on CS(=O)(=O)c1ccc(-n2nc(-c3ccc(F)cc3)c3c2C=CCC3)cc1 [Example 5a, 3-(4-Fluorophenyl)-4,5-dihydro-1-(4-methylsulfonylphenyl)-1H-indazole] yielded an IC50 (COX-1 [5]) of over 10000 nM, an inhibition at 10 µM [1] of 32% and an inhibition at 10 µM [2] of 9%. It also gave an IC50 [2] of over 10000 nM and an inhibition at 10 µM ([3]; @10 μM, COS-7 homogenate) of 6%.

COc1ccc(-n2nc(-c3ccc(F)cc3)c3c2CCCCC3)cc1 [Example 9, 3-(4-Fluorophenyl)-1-(4-methoxyphenyl)-cycloheptano-[1,2-d]-pyrazole] showed an IC50 (COX-1 [5]) of over 10000 nM, an inhibition at 10 µM [1] of 64% and an IC50 [2] of 2510 nM. The IC50 ([3]; COS-7 homogenate) was 2500 nM.

With CS(=O)(=O)c1ccc(-n2nc(-c3ccc(Cl)cc3)c3c2CCCCC3)cc1 [Example 10, 3-(4-Chlorophenyl)-1-(4-methylsulfonylphenyl)-cycloheptano-[1,2-d]-pyrazole] the IC50 (COX-1 [5]) was 10000 nM, the inhibition at 10 µM [1] was 24% and the inhibition at 10 µM [2] was 5%. The inhibition at 10 µM ([3]; @10 μM, COS-7 homogenate) was 26%.

For Fc1ccc(-n2nc(-c3ccc(Cl)cc3)c3ccc4[nH]c5ccc(F)cc5c4c32)cc1 [Example 32k], the inhibition at 3 µM (COX-1 [4]) was 22% and the inhibition at 3 µM [2] was 29%.

For CCOc1ccc2c(-c3ccc(F)cc3)nn(-c3ccc(S(C)(=O)=O)cc3)c2c1 [Example 32j], the inhibition at 3 µM (COX-1 [4]) was 35% and the inhibition at 3 µM [2] was 87%.

CS(=O)(=O)c1ccc(-n2nc3c(c2-c2ccc(C(F)(F)F)cc2)CCC=C3)cc1 [Example 32c] was tested, and the inhibition at 3 µM (COX-1 [4]) was 24% and the IC50 [2] was 610 nM.
